Assay results: patent publication US12344852B2, “Control of phenotype in plants” (GREENVENUS, LLC, priority 2016, dated 2025)

What was measured:
[1] = test system: IP:ChsA RNAi (ID164) transgenic Petunia plants; experiment: Flower color change in IP:ChsA RNAi (ID164) transgenic petunia after ligand spray; assay type: in vivo, Petunia hybrida variety V26; conditions: for time to change flower color from dark purple to variegate: one application
Excerpt: DNA construct ID164 (LB-IP:ChsA RNAi+35S:AP+CsVMV:NptII-RB) (SEQ ID NO:55) containing both the inducible promoter (IP) composed of 5 GAL4 regulatory elements (GAL4-RE) placed upstream of the minimal CaMV-35S promoter and the multidomain activator (AP) protein gene (VGE(E68V/V184I/Y204E) under the control of CaMV-35S promoter is shown in FIG. 20B. ID164 (SEQ ID NO:55) was used to transform wild type (wt) Petunia hybrid variety V26. The chalcone synthase hairpin transcript will not be express until the activator ligand (methoxyfenozide; Mtf) is provided to mobilize the activator proteins for binding to the GAL4-RE and switching the inducible promoter FS on. Transgene copy number was assessed for 56 TO transgenic plants by Tagman assay. 84% were low copies (two copies and below), 12.5% were high copy (three copies and above) and, few plants were nulls. Before ligand application most (98%) plants were flowering as dark purple color. Plants were divided in five groups, each group being treated differently. Treatment occurred every other day at a rate of 30 ml per plant. Treatment is sprayed on plants (leaves and flowers). Water is used as a mock treatment while INTREPID® 2F insecticide (Mtf being the active ingredient) is used as a ligand treatment. Group one was mock treated. Group two was treated with 2.5 uM Mtf in INTREPID® 2F insecticide form. Group three was treated with 1 mM Mtf (highest recommended dose on ornamental plants for INTREPID® 2F). Group four was treated with 2 mM Mtf and group five treated with 5 mM Mtf. […] When increasing the ligand concentration to 1 mM, change in flower color, dark purple to variegate, was observed faster (7 days post-treatment) on 50% of plants as shown in FIG. 23. With 2 mM and 5 mM ligand, one application (2 days post-treatment) was sufficient to change flower color from dark purple to variegate as shown in FIG. 24 and FIG. 25, respectively. Decrease in ChsA gene expression level in treated plants compared to their higher level before ligand treatment correlates with their change in flower color as shown in FIG. 21.

GUS reporter gene = experiment: Ligand inducible GUS silencing (Agro-infiltration, X-gluc staining) in DCL1/DCL2/GUS hairpin petunia lines; assay type: cell-based
Experimental: Assay for Agro-infiltration. Transient β-glucoronidase (GUS) expression, was modified from previously reported literature (Wroblewski et al. (2005) Plant Biotechnol. J. 3(2):259-273). Specifically, Agrobacterium tumefaciens strain EHA105 containing an appropriate plasmid for GUS expression was grown overnight to an OD600 of 0.8 and re-suspended in induction buffer with the following components: MS basal medium (Sigma-Aldrich), 10 mM MgCl2, and 100 uM acetosyringone. After 4 hours, induced culture suspension was infiltrated into detached fully expanded petunia leaves (approximately 0.1 mL/leaf). Leaves were incubated in a humidity chamber at 28° C. for 3 days.
Histochemical X-gluc staining for GUS visualization. […]
Ligand inducible hairpin expression for dsRNA synthesis targeting two Botrytis cinerea genes and the GUS reporter gene. Ligand inducible expression of the DCL1/DCL2/GUS hairpin cassette was evaluated using the transient Agrobacterium-mediated GUS expression as described above only detached leaves were sprayed with 50 uM ligand or mock treated with water prior to Agro-infiltration. […]
Eight independent Switch-DCL1/DCL2/GUS petunia lines were evaluated by detaching 6 leaves from each line and splitting into two treatments. […]

Question: For COc1cccc(C(=O)NN(C(=O)c2cc(C)cc(C)c2)C(C)(C)C)c1C [methoxyfenozide, 3-methoxy-2-methylbenzoic acid 2-(3,5-dimethylbenzoyl)-2-(1,1-dimethylethyl)hydrazide], which “time to flower color change from dark purple to light purple” value ([1]; 2.5 uM) is on record?
Answer: Its value is 10 days post-treatment.

Question: And the “plants showing flower color change from dark purple to light purple” value ([1]; 2.5 uM, sprayed every other day, 30 ml per plant, INTREPID 2F form)?
Answer: The value was 50%.

Question: What about the “plants showing change in flower color, dark purple to variegate” value ([1]; 1 mM) of the same molecule?
Answer: The value was 50%.

Question: And the “time to change in flower color, dark purple to variegate” value ([1]; 1 mM)?
Answer: The value was 7 days post-treatment.

Question: What about the “time to change flower color from dark purple to variegate” value ([1]; 2 mM) of the same molecule?
Answer: Its value is 2 days post-treatment.

Question: What about the “time to change flower color from dark purple to variegate” value ([1]; 5 mM) of the same molecule?
Answer: The value was 2 days post-treatment.

Question: What about the “GUS expression in constitutive controls DCL-25 and DCL-6” value (GUS reporter gene; 50 uM ligand vs water) of the same molecule?
Answer: The value was “did not show any ligand induced changes to GUS expression”.

Question: And the “GUS expression in Switch DCL-8 line” value (GUS reporter gene; 50 uM sprayed on detached leaves twice, Agro-infiltration at 3 days, X-gluc staining 3 days later, listed as ligand)?
Answer: The value was “ligand induced GUS silencing”.
